# Test results as given in USRE39420E1, “1,2-Diphenylpyrrole derivatives, their preparation and their therapeutic uses” (Sankyo Company, Limited, priority 1996, dated 2006).
# Tests used:
# [1] = system: yeast-induced fever; assay: Antipyretic effect on yeast-induced fever; format: in vivo, Wistar-Imamichi rats; details: Dose: 0.4 mg/kg, oral; mean of 1 and 2 hours after dosing
# Description: The method of Roszkowski et al. [J. Pharmacol. Exp. Ther. 179, 114, (1971)] was slightly modified to perform the test. The test compound was administered in the same manner as in Experiment 3. Male Wistar-Imamichi rats (6 week old, body weights: approximately 120 g) were used in the test. Yeast (Brewer's yeast, Sigma) was suspended in physiological saline to a concentration of 25%, finely crushed in an agate mortar, and injected subcutaneously into the backs of the rats under ether-anesthesia at a volume of 2 ml/rat. The rats were fasted after the injection of yeast. On the following day (19 hours after the yeast injection), a catheter-type thermistor thermometer (Japan Koden, MGA III) was inserted approximately 5 cm into the rectum to measure the temperature of the animals. […] Rectal temperatures were measured 1 and 2 hours after administration of the test compound, and fever temperature was calculated by subtracting the normal temperature of healthy animals measured simultaneously. Inhibition rate of the group treated with the compound relative to the control group was calculated by using the mean value at 1 and 2 hours after dosing.
# [2] = system: scald-induced Pain in rats; assay: Scald-induced pain test; format: in vivo, Wistar-Imamichi rats; details: oral; pain response time, mean of 1 and 2 hours after dosing
# Description: The test was conducted in accordance with the method of Iizuka and Tanaka [Jpn. J. Pharmacol. 70, 697, (1967)]. The test compound was administered in the same manner as in Experiment 3. Male Wistar-Imamichi rats (4-5 week old, body weights: approximately 100 g) were used after fasting for 16 hours. The right hind foot of the animal was immersed in hot water at 57° C. for 6 seconds to induce scald under ether-anesthesia. Two hours later, the scald foot of the rat was irritated by immersing in hot water at 40° C. for 5 seconds, and the animal was returned to the cage. […] Lifting up the scalded foot or licking it without coming in contact with the metal cage were considered to be pain responses. Pain response time was determined as the total time of the pain response during the 30-second observation period. […] Pain response time was again measured 1 and 2 hours after dosing and the mean value was determined. Using the mean values, inhibition rates were calculated relative to the control group. ID50 was calculated from the regression line determined by the inhibition rates and the doses.
# [3] = system: yeast-inflamed pain in rats; assay: Analgesic effect on yeast-inflamed pain in rats (Randall-Selitto method); format: in vivo, Wistar-Imamichi rats; details: Rattus norvegicus, oral, pain threshold 0.5, 1 and 2 hours after administration, read-out: Efficacy Rate (No. of animals in which drug was effective/No. of animals used in test) (converted)
# How it was run: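 Male Wistar-Imamichi rats were fasted 16 h and given compound orally in 0.5% tragacanth. Paw inflammation was induced by subcutaneous 20% brewer's yeast, and pressure pain threshold was measured from 4.5 h at 0.5, 1 and 2 h. An animal counted as responding if its threshold exceeded twice the control mean, and efficacy rate followed Blake's method.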
# [4] = system: IL-1β production in human peripheral monocytes; assay: Inhibitory effect on IL-1β production in LPS-stimulated human peripheral monocytes; format: cell-based; details: Monocyte, LPS 10 μg/ml, 20 hours
# Description: (§1) (1) Peripheral blood was collected from healthy human volunteers in the presence of heparin. After mixing it with an equal volume of phosphate-buffered saline (PBS, Nissui Pharmaceutical), the mixture was layered onto Ficoll Paque medium (Pharmacia) at the rate of 2:1 and centrifuged at 520×g at 25° C. for 20 minutes. After centrifugation, the monocyte layer was removed and suspended in RPMI 1640 (Nissui Pharmaceutical) containing 10% fetal calf serum (FCS). The monocytes were washed once with the same medium, placed in a plastic Petri dish, pre-treated with human plasma and incubated for 2 hours in the presence of 5% CO2 to cause them to adhere to the dish. After incubation, the Petri dish was washed twice with PBS to remove the non-adherent cells. Thereafter, PBS containing 5% FCS and 0.2% EDTA was added to the Petri dish and the dish was allowed to stand undisturbed for 15 minutes at 4° C. The monocytes were recovered from the dish by pipetting. The cells were finally suspended in RPMI 1640 at a concentration of 1.25×10^5 cells/ml. (2) Culture of Human Monocytes
# (§2) A 40 μl solution of the test compound and 40 μl of lipopolysaccharide (LPS; E. coli, 0.26:B6, Difco), adjusted to a final concentration of 10 μg/ml, were added to 320 μl of cell suspension. The resulting mixture was then cultured for 20 hours in the presence of 5% CO2 and the supernatant was removed at the end of cultivation to assay IL-1β and TNFα. The test compound was dissolved in dimethyl sulfoxide and diluted by a factor of 100 with FCS to reach 10 times the final concentration (the final concentrations of dimethyl sulfoxide and FCS were 0.1% and 10%, respectively).
# (§3) The amount of IL-1β was measured with a commercially available ELISA kit (Cayman), after diluting the supernatant medium by a factor of 15 or 30 with the ELISA buffer. The amount of TNFα was similarly measured by a ELISA kit (Genzyme) after diluting the supernatant by a factor of 2.
# (§4) The IC50 was calculated from the regression line determined by the inhibition rates and the concentrations of the test compound.
# [5] = system: TNFα production in human peripheral monocytes; assay: Inhibitory effect on TNFα production in LPS-stimulated human peripheral monocytes; format: cell-based; details: Monocyte, LPS 10 μg/ml, 20 hours
# Description: as §1, §2, §3, §4
SMILES,Inhibition Rate (%) [1],ID50 [2],responders at 12.5 mg/kg [3],inhibition at 10 µM [4],inhibition at 10 µM [5]
"COc1ccc(-c2cc(C)cn2-c2ccc(S(N)(=O)=O)cc2)cc1 [Example 52, 2-(4-Methoxyphenyl)-4-methyl-1-(4-sulfamoylphenyl)pyrrole]",82%,1.1 mg/kg,100%,–,–
"Cc1ccc(-c2ccccc2)n1-c1ccc(S(N)(=O)=O)cc1 [Compound A, 5-methyl-2-phenyl-1-(4-sulfamoylphenyl)pyrrole, reference compound]",–,–,–,24.2%,13.9%
